The values that follow come from US5344821A, “Pheromonostatic peptide used to disrupt mating of the corn earworm, helicoverpa zea” (The United States of America, as represented by the …, priority 1993, dated 1994).

Counter-ions that a name gives are not always drawn.

One assay concerns corn earworm moths. To be noted: cited from earlier work.
A further assay relates to tobacco budworm moths. To be noted: cited from earlier work.
The test system of assay [1] is H. zea males. Particulars: caged males; cited from earlier work.
Assay [2] deals with H. zea males. Particulars: field experiments, sticky or electric grid traps; cited from earlier work.
The test system of another assay is H. zea females. The experiment in a line: Bioassay: pheromone content of ligated, PBAN-injected females after a second injection with the isolated material. The format is in vivo, Helicoverpa zea. How it is done: The activity of the two peptides was evaluated by bioassay. Females were first ligated between head & thorax to remove their own source of PBAN; they were then injected with PBAN to stimulate pheromone biosynthesis, followed by a later injection with the isolated material.
Females in their 1st or 2nd photophase after emergence are ligated between the head and thorax with silk thread. The following morning, approximately 16 hours later, the females are injected with 2 picomoles of the pheromonotropic peptide PBAN. One hour later, they are injected a second time with fractionated material obtained as described supra. Two hours later, the tip of the abdomen (at the 7th abdominal segment), containing the ovipositor and the glandular tissue producing sex pheromone, is excised and extracted with 5-15 μl heptane The amount of the major component of sex pheromone, Z-11-hexadecenal, is quantified by gas chromatography. Females receiving saline (control) at the second injection typically contain 50-150 nanograms pheromone in the extract while females having been injected with the peptides extracted from the male reproductive tract are found to have 1-5 nanograms.

The next assay deals with female H. zea. Description: Depletion of female sex pheromone after transfer of the polypeptide during mating. The format is in vivo, Helicoverpa zea. How it is done:
This invention relates to a polypeptide which is transferred from the male corn earworm moth to the female during mating. After transfer, a decline in the production of sex pheromone is observed for at least 24 hours and the female becomes unattractive to males over that period of time. A continued presence of this peptide within the female serves as an effective means of insect control by rendering it permanently unattractive. The peptide is also useful in the study of insect physiology.
Non-volatile chemicals may also trigger behavioral changes. As described above, the neuropeptide PBAN initiates pheromone biosynthesis. In addition, another polypeptide, pheromonostatic peptide (PSP) is produced in the reproductive tract of male H. zea and is transferred with spermatozoa to the female during mating.

Regarding `CCCC/C=C\CCCCCCCCOC=O` [(Z)-9-TDF, (Z)-9-tetradecen-1-ol formate], the reduction of mating entry in the assay with corn earworm moths and in the assay on tobacco budworm moths was “effective in reducing mating” in each case.
Consider `CCCC/C=C\CCCCCCCCCC=O` [Z-11-hexadecenal], for which, in the assay with H. zea males [1], the sex stimulation activity result is listed as “strong sex stimulation activity”. Further, in the assay on H. zea males [2], the “catch of males in traps in the presence of the compound” value is “inhibited”.
For “PSP: basic, 57-amino acid peptide, 6615 daltons, one disulfide, pyro-Glu N-terminus, amidated C-terminus, from male H. zea accessory glands and duplex”, the “pheromone accumulation with versus without PSP injection” value in the assay with H. zea females (ligated females injected with PBAN, then with the isolated material) is “females receiving no PSP typically accumulated pheromone in much higher amounts than those having been injected with PSP”. Also, the “amount of Z-11-hexadecenal (major component of sex pheromone) in the ovipositor/gland extract” value with H. zea females (ligated females, 2 picomoles PBAN, test material injected 1 hour later, gland excised 2 hours later, gas chromatography, saline control 50-150 nanograms) is listed as 1-5 nanograms. Also, in the assay with female H. zea (after transfer during mating), the “duration of the pheromone depletion” value is listed as “at least 24 hours”. Also, the “effect on female sex pheromone after transfer at mating” value in the assay on female H. zea (transferred with spermatozoa from male to female during mating) was “causes a depletion of the sex pheromone”.
